Experimental data taken from ChEMBL document CHEMBL4011590, “Structure-activity relationship studies on 3,5-dinitrophenyl tetrazoles as antitubercular agents” (Eur J Med Chem, 2017).

Key:
[1] = tested on: Trichosporon asahii; assay: Antifungal activity against Trichosporon asahii 1188 after 48 hrs by broth microdilution method; assay type: functional; conditions: Trichosporon asahii, 1188, 48 h
[2] = tested on: Staphylococcus epidermidis; assay: Antibacterial activity against Staphylococcus epidermidis HK6966/08 after 48 hrs by broth microdilution method; assay type: functional; conditions: HK6966/08, 48 h
[3] = tested on: Klebsiella pneumoniae; assay: Antibacterial activity against Klebsiella pneumoniae HK11750/08 after 24 hrs by broth microdilution method; assay type: functional; conditions: HK11750/08, 24 h
[4] = tested on: Mycobacterium kansasii; assay: Antimycobacterial activity against Mycobacterium kansasii isolate 6509/96 after 7 days by micromethod; assay type: functional; conditions: isolate 6509/96, 168 h
[5] = tested on: Klebsiella pneumoniae; assay: Antibacterial activity against extended spectrum beta-lactamase producing Klebsiella pneumoniae HK14368/08 after 48 hrs by broth microdilution method; assay type: functional; conditions: HK14368/08, 48 h
[6] = tested on: Aspergillus fumigatus; assay: Antifungal activity against Aspergillus fumigatus 231 after 24 hrs by broth microdilution method; assay type: functional; conditions: Aspergillus fumigatus, 231, 24 h
[7] = tested on: Escherichia coli; assay: Antibacterial activity against Escherichia coli ATCC 8739 after 24 hrs by broth microdilution method; assay type: functional; conditions: ATCC 8739, 24 h
[8] = tested on: Mycobacterium tuberculosis; assay: Antimycobacterial activity against Mycobacterium tuberculosis H37Rv CNCTC My 331/88 after 21 days by micromethod; assay type: functional; conditions: H37Rv CNCTC My 331/88, 504 h
[9] = tested on: Mycobacterium kansasii; assay: Antimycobacterial activity against Mycobacterium kansasii CNCTC My 235/80 after 7 days by micromethod; assay type: functional; conditions: CNCTC My 235/80, 168 h
[10] = tested on: Mycobacterium kansasii; assay: Antimycobacterial activity against Mycobacterium kansasii isolate 6509/96 after 21 days by micromethod; assay type: functional; conditions: isolate 6509/96, 504 h
[11] = tested on: Pseudomonas aeruginosa; assay: Antibacterial activity against Pseudomonas aeruginosa ATCC 9027 after 48 hrs by broth microdilution method; assay type: functional; conditions: ATCC 9027, 48 h
[12] = tested on: Enterococcus sp.; assay: Antibacterial activity against Enterococcus sp. HK14365/08 after 48 hrs by broth microdilution method; assay type: functional; conditions: HK14365/08, 48 h
[13] = tested on: Mycobacterium avium; assay: Antimycobacterial activity against Mycobacterium avium CNCTC My 330/80 after 14 days by micromethod; assay type: functional; conditions: CNCTC My 330/80, 336 h
[14] = tested on: Pichia kudriavzevii; assay: Antifungal activity against Candida krusei E28 after 24 hrs by broth microdilution method; assay type: functional; conditions: E28, 24 h
[15] = tested on: Staphylococcus aureus; assay: Antibacterial activity against methicillin-resistant Staphylococcus aureus HK5996/08 after 48 hrs by broth microdilution method; assay type: functional; conditions: HK5996/08, 48 h
[16] = tested on: Staphylococcus aureus; assay: Antibacterial activity against Staphylococcus aureus ATCC 6538 after 24 hrs by broth microdilution method; assay type: functional; conditions: ATCC 6538, 24 h
[17] = tested on: Mycobacterium avium; assay: Antimycobacterial activity against Mycobacterium avium CNCTC My 330/80 after 21 days by micromethod; assay type: functional; conditions: CNCTC My 330/80, 504 h
[18] = tested on: Staphylococcus aureus; assay: Antibacterial activity against Staphylococcus aureus ATCC 6538 after 48 hrs by broth microdilution method; assay type: functional; conditions: ATCC 6538, 48 h
[19] = tested on: Staphylococcus aureus; assay: Antibacterial activity against methicillin-resistant Staphylococcus aureus HK5996/08 after 24 hrs by broth microdilution method; assay type: functional; conditions: HK5996/08, 24 h
[20] = tested on: Klebsiella pneumoniae; assay: Antibacterial activity against extended spectrum beta-lactamase producing Klebsiella pneumoniae HK14368/08 after 24 hrs by broth microdilution method; assay type: functional; conditions: HK14368/08, 24 h
[21] = tested on: CHO-K1; assay: Cytotoxicity against CHOK1 cells after 24 hrs by MTT assay; assay type: cell-based; conditions: Cricetulus griseus, CHO-K1, 24 h
[22] = tested on: Aspergillus fumigatus; assay: Antifungal activity against Aspergillus fumigatus 231 after 48 hrs by broth microdilution method; assay type: functional; conditions: Aspergillus fumigatus, 231, 48 h
[23] = tested on: Trichophyton mentagrophytes; assay: Antifungal activity against Trichophyton mentagrophytes 445 after 120 hrs by broth microdilution method; assay type: functional; conditions: Trichophyton mentagrophytes, 445, 120 h
[24] = tested on: Klebsiella pneumoniae; assay: Antibacterial activity against Klebsiella pneumoniae HK11750/08 after 48 hrs by broth microdilution method; assay type: functional; conditions: HK11750/08, 48 h
[25] = tested on: Nakaseomyces glabratus; assay: Antifungal activity against Candida glabrata 20/I after 24 hrs by broth microdilution method; assay type: functional
[26] = tested on: Trichosporon asahii; assay: Antifungal activity against Trichosporon asahii 1188 after 24 hrs by broth microdilution method; assay type: functional; conditions: Trichosporon asahii, 1188, 24 h
[27] = tested on: Mycobacterium tuberculosis; assay: Antimycobacterial activity against Mycobacterium tuberculosis H37Rv CNCTC My 331/88 after 14 days by micromethod; assay type: functional; conditions: H37Rv CNCTC My 331/88, 336 h
[28] = tested on: Pseudomonas aeruginosa; assay: Antibacterial activity against Pseudomonas aeruginosa ATCC 9027 after 24 hrs by broth microdilution method; assay type: functional; conditions: ATCC 9027, 24 h
[29] = tested on: Trichophyton mentagrophytes; assay: Antifungal activity against Trichophyton mentagrophytes 445 after 72 hrs by broth microdilution method; assay type: functional; conditions: Trichophyton mentagrophytes, 445, 72 h
[30] = tested on: Candida tropicalis; assay: Antifungal activity against Candida tropicalis 156 after 48 hrs by broth microdilution method; assay type: functional; conditions: Candida tropicalis, 156, 48 h
[31] = tested on: Lichtheimia corymbifera; assay: Antifungal activity against Absidia corymbifera 272 after 24 hrs by broth microdilution method; assay type: functional; conditions: Lichtheimia corymbifera, 272, 24 h
[32] = tested on: Staphylococcus epidermidis; assay: Antibacterial activity against Staphylococcus epidermidis HK6966/08 after 24 hrs by broth microdilution method; assay type: functional; conditions: HK6966/08, 24 h
[33] = tested on: Lichtheimia corymbifera; assay: Antifungal activity against Absidia corymbifera 272 after 48 hrs by broth microdilution method; assay type: functional; conditions: Lichtheimia corymbifera, 272, 48 h
[34] = tested on: Candida albicans; assay: Antifungal activity against Candida albicans ATCC 44859 after 24 hrs by broth microdilution method; assay type: functional; conditions: ATCC 44859, 24 h
[35] = tested on: Mycobacterium kansasii; assay: Antimycobacterial activity against Mycobacterium kansasii CNCTC My 235/80 after 21 days by micromethod; assay type: functional; conditions: CNCTC My 235/80, 504 h
[36] = tested on: Pichia kudriavzevii; assay: Antifungal activity against Candida krusei E28 after 48 hrs by broth microdilution method; assay type: functional; conditions: E28, 48 h
[37] = tested on: Nakaseomyces glabratus; assay: Antifungal activity against Candida glabrata 20/I after 48 hrs by broth microdilution method; assay type: functional
[38] = tested on: Escherichia coli; assay: Antibacterial activity against Escherichia coli ATCC 8739 after 48 hrs by broth microdilution method; assay type: functional; conditions: ATCC 8739, 48 h
[39] = tested on: Candida tropicalis; assay: Antifungal activity against Candida tropicalis 156 after 24 hrs by broth microdilution method; assay type: functional; conditions: Candida tropicalis, 156, 24 h
[40] = tested on: Candida albicans; assay: Antifungal activity against Candida albicans ATCC 44859 after 48 hrs by broth microdilution method; assay type: functional; conditions: ATCC 44859, 48 h
[41] = tested on: Enterococcus sp.; assay: Antibacterial activity against Enterococcus sp. HK14365/08 after 24 hrs by broth microdilution method; assay type: functional; conditions: HK14365/08, 24 h
[42] = tested on: Mycobacterium kansasii; assay: Antimycobacterial activity against Mycobacterium kansasii isolate 6509/96 after 14 days by micromethod; assay type: functional; conditions: isolate 6509/96, 336 h
[43] = tested on: Mycobacterium kansasii; assay: Antimycobacterial activity against Mycobacterium kansasii CNCTC My 235/80 after 14 days by micromethod; assay type: functional; conditions: CNCTC My 235/80, 336 h

O=[N+]([O-])c1cc(-c2nnn(Cc3ccccc3F)n2)cc([N+](=O)[O-])c1
> 200 µM: IC50 [21]
1 µM: MIC99 [4] | MIC99 [42] | MIC99 [43]
16 µM: MIC99 [17]
250 µM: MIC [2] | MIC [32]
2 µM: MIC99 [10] | MIC99 [35]
500 µM: MIC [15] | MIC [16] | MIC [18] | MIC [19]
> 500 µM: MIC [1] | MIC [3] | MIC [5] | MIC [6] | MIC [7] | MIC [11] | MIC [12] | MIC [14] | MIC [20] | MIC [22] | MIC [23] | MIC [24] | MIC [25] | MIC [26] | MIC [28] | MIC [29] | MIC [30] | MIC [31] | MIC [33] | MIC [34] | MIC [36] | MIC [37] | MIC [38] | MIC [39] | MIC [40] | MIC [41]
8 µM: MIC99 [13]
0.5 µM: MIC99 [8] | MIC99 [9] | MIC99 [27]

O=[N+]([O-])c1cc(-c2nnn(CSc3nnnn3Cc3ccccc3)n2)cc([N+](=O)[O-])c1
0.125 µM: MIC99 [8] | MIC99 [27]
32 µM: MIC99 [17]
16 µM: MIC99 [13]
> 125 µM: MIC [1] | MIC [2] | MIC [3] | MIC [5] | MIC [6] | MIC [7] | MIC [11] | MIC [12] | MIC [14] | MIC [15] | MIC [16] | MIC [18] | MIC [19] | MIC [20] | MIC [22] | MIC [23] | MIC [24] | MIC [25] | MIC [26] | MIC [28] | MIC [29] | MIC [30] | MIC [31] | MIC [32] | MIC [33] | MIC [34] | MIC [36] | MIC [37] | MIC [38] | MIC [39] | MIC [40] | MIC [41]
4 µM: MIC99 [10] | MIC99 [35] | MIC99 [42] | MIC99 [43]
2 µM: MIC99 [4] | MIC99 [9]
